Laboratory results taken from paper PMC11284788, “NN1213 – A Potent, Long-Acting, and Selective Analog of Human Amylin” (Journal of Medicinal Chemistry, 2024).
Numbered stars: 1 amine (or outer) side, 2 acyl side, 3 side chain; on linkers, the order of the positions; unused ones are H or OH. Bridge positions count the residues as written; N and C are the ends. Peptide text beside a SMILES is read from it. * marks the point of attachment. C20 diacid = O=C(O)CCCCCCCCCCCCCCCCCCC(=O)*; γGlu = O=C(O)[C@H](CCC(=O)[*:2])N[*:1]

How the values were obtained:
rCTR = biological target: T1, rCTR (Rattus norvegicus, UniProt P32214); assay: scintillation proximity binding assay, rCTR membranes; details: SPA binding assay, Tables S13 and S15
T1 construct: expressed in transfected cells; host or cells: BHK tk-ts 13, transient (FuGENE 6)
T1 sequence (P32214 25-479 isoform P32214-2 limits assumed): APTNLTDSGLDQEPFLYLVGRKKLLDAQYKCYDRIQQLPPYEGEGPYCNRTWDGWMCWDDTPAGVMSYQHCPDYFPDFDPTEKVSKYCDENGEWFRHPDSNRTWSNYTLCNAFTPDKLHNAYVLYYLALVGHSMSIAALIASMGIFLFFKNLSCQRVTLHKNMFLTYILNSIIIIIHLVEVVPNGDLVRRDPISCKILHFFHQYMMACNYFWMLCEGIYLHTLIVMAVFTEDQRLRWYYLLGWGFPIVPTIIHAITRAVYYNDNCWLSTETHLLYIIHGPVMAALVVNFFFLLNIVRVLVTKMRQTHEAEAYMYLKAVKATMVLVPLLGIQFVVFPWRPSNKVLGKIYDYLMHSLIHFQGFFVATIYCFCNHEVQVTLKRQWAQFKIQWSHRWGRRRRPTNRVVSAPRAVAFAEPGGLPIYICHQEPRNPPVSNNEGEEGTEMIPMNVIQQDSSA
Method: (§1) The apparent binding affinities were determined using a scintillation proximity assay with beads from PerkinElmer and cell membranes containing the AMY3R or CTRs. […] Membranes were harvested and membranes were prepared and kept at −80 °C until use. The assay was performed in a 384-well Optiplate (PerkinElmer). Membranes were mixed with scintillation proximity assay beads in a 1:1 ratio. […] Samples were analyzed on a TopCounter (Packard). The IC50 values were calculated using GraphPad Prism. See Supporting Information S7: SAR Screening Assay Methods (Binding Assays (Human and Rat)) for more information.
(§2) Binding Assays (Human and Rat). Brief descriptions of the methods used to determine binding affinities for SAR analysis are described below. Curves and IC50 values were plotted and calculated in GraphPad Prism using nonlinear regression (one site binding competition analysis), with pIC50 values […]
(§3) values were used to calculate the binding affinity ratios in order to express the selectivity of compounds for the AMY3R versus the CTR.
(§4) CTR Binding Assay. The binding assay was performed using scintillation proximity assay (SPA) beads (RPNQ0001) from PerkinElmer and cell membranes containing either the hCTR or rCTR. BHK […]
(§5) Membranes were prepared in the following way: the cells were rinsed with PBS and incubated with Versene for approximately 5 min before harvesting. The cells were flushed with PBS and the cell-suspension was centrifuged for 5 min at 1000 rpm. Cells were homogenized (Ultra Turrax) in a buffer […]
(§6) containing 20 mM Na-HEPES and 0.1 mM EDTA (pH 7.4, buffer 2). The resulting pellet was re-suspended in buffer 2 and protein concentration was measured (BCA protein assay, Pierce). The homogenate was kept cold during the whole procedure. The membranes were stored at –80 °C until […]
(§7) The binding assay was performed in a 384-well Optiplate (PerkinElmer) in a total volume of 40 μL.
(§8) Membranes were mixed with SPA beads in a 1:1 ratio. […]
(§9) mg/well. Test compounds were dissolved in DMSO and further diluted in assay buffer (50 mM HEPES, pH 7.4, 1 mM CaCl2, 5 mM MgCl2, 0.1% ovalbumin, and 0.02% Tween-20).
(§10) Calcitonin (NEX422 PerkinElmer) was dissolved in assay buffer and added to the Optiplate at a final […]
(§11) prior to centrifugation (1500 rpm, 10 min). Samples were analyzed on TopCounter (Packard).

rAMY3R = biological target: T2, rAMY3R (Rattus norvegicus, UniProt P32214+Q9JJ73); assay: scintillation proximity binding assay, rAMY3R membranes; parameters: expressed in transfected cells; host or cells: BHK tk-ts 13, transient co-transfection (FuGENE 6); details: for rAMY3R pIC50: SPA binding assay, Tables S13 and S15; for ratio rCTR/rAMY3R: ratio of binding IC50 values
T2 sequence (P32214 25-479 isoform P32214-2 limits assumed): T1 sequence (P32214 25-479 isoform P32214-2 limits assumed)
T2 sequence (Q9JJ73 23-147 partner): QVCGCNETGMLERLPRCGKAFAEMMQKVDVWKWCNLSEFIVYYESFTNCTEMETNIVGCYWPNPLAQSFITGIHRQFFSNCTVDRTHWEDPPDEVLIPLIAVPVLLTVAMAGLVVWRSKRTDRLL
Method: as §1, §2, §3, §4, §5, §6, §7, §8, §9, §10, §11
AMY3R Binding Assay. The binding assay was performed using SPA beads (RPNQ0001) from PerkinElmer and cell membranes containing either the hAMY3R or rAMY3R. BHK tk-ts 13 cells were […]
as §5, with “and cultured as described above. Membranes” for “Membranes”, “buffer containing 20 mM Na-HEPES and 10 mM EDTA (pH 7.4), and” for “buffer”
The resulting pellet was re-suspended, homogenized, and
7.4, buffer 2). The resulting pellet was re-suspended in buffer 2 and protein concentration was measured (BCA protein assay, Pierce). The homogenate was kept cold during the whole procedure.
The membranes were stored at –80 °C until use.
Membranes were mixed with SPA beads in a 1:1 ratio. The final concentration of SPA beads was 0.05 mg/well. Test compounds were dissolved in DMSO and further diluted in assay buffer (50 mM […]
rAMY (NEX448 PerkinElmer) was dissolved in assay buffer and added to the Optiplate at a final

hCTR = biological target: T3, hCTR (Homo sapiens, UniProt P30988); assay: scintillation proximity binding assay, hCTR membranes; parameters: expressed in transfected cells; host or cells: BHK tk-ts 13, transient (FuGENE 6); membranes for the SPA, whole cells for the species-specific assays; details: SPA binding assay, Tables S13 and S15
T3 sequence (P30988 25-474): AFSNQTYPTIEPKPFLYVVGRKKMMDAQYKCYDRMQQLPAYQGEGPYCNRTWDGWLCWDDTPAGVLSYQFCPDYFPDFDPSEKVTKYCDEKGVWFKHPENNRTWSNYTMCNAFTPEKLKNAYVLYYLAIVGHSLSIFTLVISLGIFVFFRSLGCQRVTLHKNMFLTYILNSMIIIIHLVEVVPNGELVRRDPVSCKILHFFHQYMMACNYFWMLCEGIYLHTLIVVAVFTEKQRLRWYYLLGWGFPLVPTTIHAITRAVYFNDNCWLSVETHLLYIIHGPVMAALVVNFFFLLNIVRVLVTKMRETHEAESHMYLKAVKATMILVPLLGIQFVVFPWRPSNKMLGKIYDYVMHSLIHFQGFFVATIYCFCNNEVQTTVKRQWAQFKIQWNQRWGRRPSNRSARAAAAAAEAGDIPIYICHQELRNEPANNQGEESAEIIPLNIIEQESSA
Method: as §1, §2, §3, §4, §5, §6, §7, §8, §9, §10, §11

rCTR pIC50 (rCTR)	rAMY3R pIC50 (rAMY3R)	ratio rCTR/rAMY3R (rAMY3R)	hCTR pIC50 (hCTR)	IC50 (rAMY3R; SPA, BHK cell membranes, 125I-rat amylin, 120 min 25 °C, read-out: rAMY3R IC50) [nM]	Structure (SMILES)
8.22	9.75	34	8.96	–	CC[C@H](C)[C@H](NC(=O)[C@H](C)NC(=O)CNC(=O)[C@H](Cc1ccccc1)NC(=O)[C@H](CC(N)=O)NC(=O)[C@@H]1CCCN1C(=O)[C@H](CO)NC(=O)[C@H](CO)NC(=O)[C@H](Cc1c[nH]cn1)NC(=O)[C@H](CCCNC(=N)N)NC(=O)[C@H](CC(C)C)NC(=O)[C@H](Cc1ccccc1)NC(=O)[C@H](CCC(=O)O)NC(=O)[C@H](C)NC(=O)[C@H](CC(C)C)NC(=O)[C@H](CCCNC(=N)N)NC(=O)[C@H](CCC(N)=O)NC(=O)[C@@H](NC(=O)[C@H](C)NC(=O)[C@@H]1CSSC[C@H](NC(=O)[C@H](CCCCN)NC(=O)CC[C@H](NC(=O)CCCCCCCCCCCCCCCCCCC(=O)O)C(=O)O)C(=O)N[C@@H](CC(N)=O)C(=O)N[C@@H]([C@@H](C)O)C(=O)N[C@@H](C)C(=O)N[C@@H]([C@@H](C)O)C(=O)N1)[C@@H](C)O)C(=O)N1CCC[C@H]1C(=O)N[C@@H](CO)C(=O)N[C@@H](CO)C(=O)N[C@H](C(=O)N[C@@H](CC(N)=O)C(=O)N[C@H](C(=O)NCC(=O)N1CCC[C@H]1C(=O)N[C@@H](CC(N)=O)C(=O)N[C@H](C(=O)N[C@@H](Cc1ccc(O)cc1)C(N)=O)[C@@H](C)O)C(C)C)[C@@H](C)O [Peptide 12] ({C20 diacid-γGlu}-KCNTATCATQRLAEFLRHSSPNFGAIPSSTNVGPNTY-NH2; disulfide 2-7)
7.02	8.75	55	7.71	1.77	CC[C@H](C)[C@H](NC(=O)[C@H](C)NC(=O)CNC(=O)[C@H](Cc1ccccc1)NC(=O)[C@H](CC(N)=O)NC(=O)[C@@H]1CCCN1C(=O)[C@H](CO)NC(=O)[C@H](CO)NC(=O)[C@H](Cc1c[nH]cn1)NC(=O)[C@H](CCCNC(=N)N)NC(=O)[C@H](CC(C)C)NC(=O)[C@H](Cc1ccccc1)NC(=O)[C@H](CC(N)=O)NC(=O)[C@H](C)NC(=O)[C@H](CC(C)C)NC(=O)[C@H](CCCNC(=N)N)NC(=O)[C@H](CCC(N)=O)NC(=O)[C@@H](NC(=O)[C@H](C)NC(=O)[C@@H]1CSSC[C@H](NC(=O)[C@H](CCCCN)NC(=O)CC[C@H](NC(=O)CCCCCCCCCCCCCCCCCCC(=O)O)C(=O)O)C(=O)N[C@@H](CC(N)=O)C(=O)N[C@@H]([C@@H](C)O)C(=O)N[C@@H](C)C(=O)N[C@@H]([C@@H](C)O)C(=O)N1)[C@@H](C)O)C(=O)N1CCC[C@H]1C(=O)N[C@@H](CO)C(=O)N[C@@H](CO)C(=O)N[C@H](C(=O)N[C@@H](CC(N)=O)C(=O)N[C@H](C(=O)NCC(=O)N[C@@H](CCCNC(=N)N)C(=O)N[C@@H](CC(N)=O)C(=O)N[C@H](C(=O)N[C@@H](Cc1ccc(O)cc1)C(N)=O)[C@@H](C)O)C(C)C)[C@@H](C)O [Peptide 16]
7.77	9.69	84	7.81	–	CC[C@H](C)[C@H](NC(=O)[C@H](C)NC(=O)CNC(=O)[C@H](Cc1ccccc1)NC(=O)[C@H](CC(N)=O)NC(=O)[C@@H]1CCCN1C(=O)[C@H](CO)NC(=O)[C@H](CO)NC(=O)[C@H](Cc1c[nH]cn1)NC(=O)[C@H](CCCNC(=N)N)NC(=O)[C@H](CC(C)C)NC(=O)[C@H](Cc1ccccc1)NC(=O)[C@H](CC(N)=O)NC(=O)[C@H](C)NC(=O)[C@H](CC(C)C)NC(=O)[C@H](CCCNC(=N)N)NC(=O)[C@H](CCC(N)=O)NC(=O)[C@@H](NC(=O)[C@H](C)NC(=O)[C@@H]1CSSC[C@H](NC(=O)[C@H](CCCNC(=N)N)NC(=O)CNC(=O)CC[C@H](NC(=O)CCCCCCCCCCCCCCCCCCC(=O)O)C(=O)O)C(=O)N[C@@H](CC(N)=O)C(=O)N[C@@H]([C@@H](C)O)C(=O)N[C@@H](C)C(=O)N[C@@H]([C@@H](C)O)C(=O)N1)[C@@H](C)O)C(=O)N1CCC[C@H]1C(=O)N[C@@H](CO)C(=O)N[C@@H](CO)C(=O)N[C@H](C(=O)N[C@@H](CC(N)=O)C(=O)N[C@H](C(=O)NCC(=O)N[C@@H](CO)C(=O)N[C@@H](Cc1c[nH]cn1)C(=O)N[C@H](C(=O)N[C@@H](Cc1ccc(O)cc1)C(N)=O)[C@@H](C)O)C(C)C)[C@@H](C)O [Peptide 19] ({C20 diacid-γGlu}-GRCNTATCATQRLANFLRHSSPNFGAIPSSTNVGSHTY-NH2; disulfide 3-8)
